Measured values: patent US10588317B2, “Isoxazoline-substituted benzamides and analogues as insecticides” (priority 2015, dated 2020)

Tests used:
Type in all cases: in vivo
[1] = system: Diabrotica balteata; test: Diabrotica balteata (corn root worm), sprayed maize sprouts; details: 96 h, application rate 200 ppm, L2 larvae, 4 days after infestation, read-out: effect in at least one of the two categories (mortality or growth inhibition)
How it was run: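 Read-out at 4 days post-infestation: mortality and growth inhibition relative to untreated samples. Test solutions (200 ppm, from DMSO stocks) were sprayed onto agar-held maize sprouts, which after drying received 6–10 L2 larvae per well.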

[2] = system: Euschistus heros; test: Euschistus heros (neotropical brown stink bug), sprayed soybean leaves; details: 120 h, application rate 200 ppm, N2 nymphs, 5 days after infestation, read-out: effect in at least one of the two categories (mortality or growth inhibition)
How it was run: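 Scored 5 days post-infestation versus untreated controls, for both mortality and growth inhibition: N2 nymphs placed on agar-mounted soybean leaves previously sprayed at 200 ppm with aqueous test solutions from DMSO stocks and left to dry.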

[3] = system: Myzus persicae; test: Myzus persicae (green peach aphid): feeding/contact activity; details: 144 h, application rate 200 ppm, aphid population of mixed ages, 6 days after infestation, read-out: mortality
Protocol: Sunflower leaf discs were placed onto agar in a 24-well microtiter plate and sprayed with aqueous test solutions prepared from 10'000 ppm DMSO stock solutions. After drying, the leaf discs were infested with an aphid population of mixed ages. The samples were assessed for mortality 6 days after infestation.

[4] = system: Plutella xylostella; test: Plutella xylostella (diamond back moth), artificial diet; details: 120 h, application rate 200 ppm, L2 larvae, 5 days after infestation, read-out: effect in at least one of the two categories (mortality or growth inhibition)
How it was run: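 L2 larvae (10-15 per well) fed on compound-treated, dried artificial diet; test solutions diluted in water from 10'000 ppm DMSO stocks. Readout 5 days post-infestation as mortality or growth inhibition versus untreated diet, with at least 80% effect at 200 ppm as threshold.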

[5] = system: Spodoptera littoralis; test: Spodoptera littoralis (Egyptian cotton leaf worm), sprayed cotton leaf discs; details: foliar, 72 h, application rate 200 ppm, L1 larvae, 3 days after infestation, read-out: control (mortality, anti-feeding effect, growth inhibition)
How it was run: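 Five first-instar larvae placed on dried cotton leaf discs (on agar) previously sprayed with aqueous dilutions of 10'000 ppm DMSO stocks. Scored at 3 days against untreated discs for mortality, feeding inhibition and growth inhibition; any category above untreated counts as control.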

[6] = system: Tetranychus urticae; test: Tetranychus urticae (two-spotted spider mite): feeding/contact activity; details: 192 h, application rate 200 ppm, mixed population (mobile stages), 8 days after infestation, read-out: mortality
Protocol: Bean leaf discs on agar in 24-well microtiter plates were sprayed with aqueous test solutions prepared from 10'000 ppm DMSO stock solutions. After drying the leaf discs were infested with a mite population of mixed ages. The samples were assessed for mortality on mixed population (mobile stages) 8 days after infestation.

[7] = system: Thrips tabaci; test: Thrips tabaci (onion thrips): feeding/contact activity; details: 144 h, application rate 200 ppm, Thrips population of mixed ages, 6 days after infestation, read-out: mortality
Protocol: Sunflower leaf discs were placed on agar in 24-well microtiter plates and sprayed with aqueous test solutions prepared from 10'000 ppm DMSO stock solutions. After drying the leaf discs were infested with a Thrips population of mixed ages. The samples were assessed for mortality 6 days after infestation.

O=C(N[C@H]1CON(S(=O)(=O)NC2CC2)C1)c1ccc(C2=NO[C@@](c3cc(Cl)cc(Cl)c3)(C(F)(F)F)C2)cc1Cl [Compound A154]
≥ 80%: percent effect (mortality or growth inhibition) at 200 ppm [1] | percent effect (mortality or growth inhibition) at 200 ppm [2] | mortality at 200 ppm [3] | percent effect (mortality or growth inhibition) at 200 ppm [4] | mortality at 200 ppm [5] | mortality at 200 ppm [6] | mortality at 200 ppm [7]

CNS(=O)(=O)N1C[C@@H](NC(=O)c2ccc(C3=NO[C@](c4cc(Cl)c(C(F)F)c(Cl)c4)(C(F)(F)F)C3)cc2C)CO1 [Compound A206, 4-[(5R)-5-[3,5-dichloro-4-(difluoromethyl)phenyl]-5-(trifluoromethyl)-4H-1,2-oxazol-3-yl]-2-methyl-N-[(4R)-2-(methylsulfamoyl)-1,2-oxazolidin-4-yl]benzamide]
≥ 80%: percent effect (mortality or growth inhibition) at 200 ppm [1] | percent effect (mortality or growth inhibition) at 200 ppm [2] | mortality at 200 ppm [3] | percent effect (mortality or growth inhibition) at 200 ppm [4] | mortality at 200 ppm [5] | mortality at 200 ppm [6] | mortality at 200 ppm [7]

Cc1cc(C2=NO[C@@](c3cc(Cl)c(F)c(Cl)c3)(C(F)(F)F)C2)ccc1C(=O)N[C@@H]1CON(S(=O)(=O)N2CCOCC2)C1 [Compound A188, 4-[(5S)-5-(3,5-dichloro-4-fluorophenyl)-5-(trifluoromethyl)-4H-1,2-oxazol-3-yl]-2-methyl-N-[(4S)-2-morpholin-4-ylsulfonyl-1,2-oxazolidin-4-yl]benzamide]
≥ 80%: percent effect (mortality or growth inhibition) at 200 ppm [1] | percent effect (mortality or growth inhibition) at 200 ppm [2] | mortality at 200 ppm [3] | percent effect (mortality or growth inhibition) at 200 ppm [4] | mortality at 200 ppm [5] | mortality at 200 ppm [6] | mortality at 200 ppm [7]

Cc1cc(C2=NO[C@@](c3cc(Cl)cc(Cl)c3)(C(F)(F)F)C2)ccc1C(=O)N[C@H]1CON(S(=O)(=O)N(C)C2CC2)C1 [Compound A156]
≥ 80%: percent effect (mortality or growth inhibition) at 200 ppm [1] | percent effect (mortality or growth inhibition) at 200 ppm [2] | mortality at 200 ppm [3] | percent effect (mortality or growth inhibition) at 200 ppm [4] | mortality at 200 ppm [5] | mortality at 200 ppm [6] | mortality at 200 ppm [7]

Cc1cc(C2=NO[C@@](c3cc(F)cc(C(F)(F)F)c3)(C(F)(F)F)C2)ccc1C(=O)N[C@@H]1CON(S(=O)(=O)N(C)C)C1 [Compound A169]
≥ 80%: percent effect (mortality or growth inhibition) at 200 ppm [1] | percent effect (mortality or growth inhibition) at 200 ppm [2] | mortality at 200 ppm [3] | percent effect (mortality or growth inhibition) at 200 ppm [4] | mortality at 200 ppm [5] | mortality at 200 ppm [6] | mortality at 200 ppm [7]

Cc1cc(C2=NO[C@@](c3cc(Cl)cc(C(F)(F)F)c3)(C(F)(F)F)C2)ccc1C(=O)N[C@@H]1CON(S(=O)(=O)C(F)F)C1 [Compound A233]
≥ 80%: percent effect (mortality or growth inhibition) at 200 ppm [1] | percent effect (mortality or growth inhibition) at 200 ppm [2] | mortality at 200 ppm [3] | percent effect (mortality or growth inhibition) at 200 ppm [4] | mortality at 200 ppm [5] | mortality at 200 ppm [6] | mortality at 200 ppm [7]

Cc1cc(C2=NO[C@@](c3cc(Cl)c(Cl)c(Cl)c3)(C(F)(F)F)C2)ccc1C(=O)NC1CON(S(=O)(=O)N(C)CC2CO2)C1 (stereo partly drawn) [Compound A83, 2-methyl-N-[2-[methyl(oxiran-2-ylmethyl)sulfamoyl]isoxazolidin-4-yl]-4-[(5S)-5-(3,4,5-trichlorophenyl)-5-(trifluoromethyl)-4H-isoxazol-3-yl]benzamide]
≥ 80%: percent effect (mortality or growth inhibition) at 200 ppm [1] | percent effect (mortality or growth inhibition) at 200 ppm [2] | mortality at 200 ppm [3] | percent effect (mortality or growth inhibition) at 200 ppm [4] | mortality at 200 ppm [5] | mortality at 200 ppm [6] | mortality at 200 ppm [7]

Cc1cc(C2=NO[C@@](c3cc(Cl)c(C(F)F)c(Cl)c3)(C(F)(F)F)C2)ccc1C(=O)N[C@@H]1CON(S(C)(=O)=O)C1 [Compound A197, 4-[(5S)-5-[3,5-dichloro-4-(difluoromethyl)phenyl]-5-(trifluoromethyl)-4H-1,2-oxazol-3-yl]-2-methyl-N-[(4S)-2-methylsulfonyl-1,2-oxazolidin-4-yl]benzamide]
≥ 80%: percent effect (mortality or growth inhibition) at 200 ppm [1] | percent effect (mortality or growth inhibition) at 200 ppm [2] | mortality at 200 ppm [3] | percent effect (mortality or growth inhibition) at 200 ppm [4] | mortality at 200 ppm [5] | mortality at 200 ppm [6] | mortality at 200 ppm [7]

Cc1cc(C2=NO[C@@](c3cc(Cl)c(F)c(Cl)c3)(C(F)(F)F)C2)ccc1C(=O)N[C@H]1CON(S(=O)(=O)N2CCC2)C1 [Compound A148]
≥ 80%: percent effect (mortality or growth inhibition) at 200 ppm [1] | percent effect (mortality or growth inhibition) at 200 ppm [2] | mortality at 200 ppm [3] | percent effect (mortality or growth inhibition) at 200 ppm [4] | mortality at 200 ppm [5] | mortality at 200 ppm [6] | mortality at 200 ppm [7]

Cc1cc(C2=NO[C@](c3cc(Cl)c(Cl)c(Cl)c3)(C(F)(F)F)C2)ccc1C(=O)N[C@H]1CON(S(=O)(=O)CF)C1 [Compound A216, N-[(4R)-2-(fluoromethylsulfonyl)-1,2-oxazolidin-4-yl]-2-methyl-4-[(5R)-5-(3,4,5-trichlorophenyl)-5-(trifluoromethyl)-4H-1,2-oxazol-3-yl]benzamide]
≥ 80%: percent effect (mortality or growth inhibition) at 200 ppm [1] | percent effect (mortality or growth inhibition) at 200 ppm [2] | mortality at 200 ppm [3] | percent effect (mortality or growth inhibition) at 200 ppm [4] | mortality at 200 ppm [5] | mortality at 200 ppm [6] | mortality at 200 ppm [7]

CCN(C(=O)OC(C)(C)C)S(=O)(=O)N1CC(NC(=O)c2ccc(C3=NO[C@@](c4cc(Cl)c(F)c(Cl)c4)(C(F)(F)F)C3)cc2C)CO1 (stereo partly drawn) [Compound A93, tert-butyl N-[4-[[4-[(5S)-5-(3,5-dichloro-4-fluoro-phenyl)-5-(trifluoromethyl)-4H-isoxazol-3-yl]-2-methyl-benzoyl]amino]isoxazolidin-2-yl]sulfonyl-N-ethyl-carbamate]
≥ 80%: percent effect (mortality or growth inhibition) at 200 ppm [1] | percent effect (mortality or growth inhibition) at 200 ppm [2] | mortality at 200 ppm [3] | percent effect (mortality or growth inhibition) at 200 ppm [4] | mortality at 200 ppm [5] | mortality at 200 ppm [6] | mortality at 200 ppm [7]

Cc1cc(C2=NO[C@](c3cc(Cl)c(F)c(Cl)c3)(C(F)(F)F)C2)ccc1C(=O)N[C@H]1CON(S(=O)(=O)CCl)C1 [Compound A164, N-[(4R)-2-(chloromethylsulfonyl)-1,2-oxazolidin-4-yl]-4-[(5R)-5-(3,5-dichloro-4-fluorophenyl)-5-(trifluoromethyl)-4H-1,2-oxazol-3-yl]-2-methylbenzamide]
≥ 80%: percent effect (mortality or growth inhibition) at 200 ppm [1] | percent effect (mortality or growth inhibition) at 200 ppm [2] | mortality at 200 ppm [3] | percent effect (mortality or growth inhibition) at 200 ppm [4] | mortality at 200 ppm [5] | mortality at 200 ppm [6] | mortality at 200 ppm [7]
